What was measured:
[1] = test system: pancreatic adenocarcinoma; assay: Kaplan-Meier survival analysis comparing adjuvant treatments within histone groups, RTOG 9704 TMA; assay type: in vivo, human; conditions: adjuvant chemotherapy; for overall or disease-free survival, gemcitabine or 5-FU: each of the high level histone subgroups
Protocol: METHODS: Tissue microarrays (TMAs) from two large pancreatic adenocarcinoma cohorts were examined, including a 195 patient cohort from RTOG 9704, a multi-center phase III randomized treatment trial comparing adjuvant gemcitabine versus 5-fluorouracil (5-FU), and a 140 patient cohort of Stage I or II cancer from UCLA Medical Center. Immunohistochemistry for three histone modifications (H3K4me2, H3K9me2 and H3K18ac) was performed. Positive tumor cell staining of the histone modifications was used to classify patients into low and high staining groups, which were related to clinicopathologic parameters and clinical outcome measures.
Pancreatic adenocarcinoma patients and tissue microarrays. The RTOG 9704 pancreatic cancer tissue microarray (TMA) consisted of 229 cases of pancreatic adenocarcinoma obtained from patients enrolled in RTOG 9704, a phase III randomized post-operative adjuvant treatment trial comparing 5-fluorouracil (5-FU) to gemcitabine before and after chemoradiation (Regine et al., Jama 299:1019-26 (2008)). In RTOG 9704, all patients received adjuvant chemotherapy (5-FU or gemcitabine) for durations of one month before and three months following chemoradiation therapy, which included 5-FU infusion as a radiation sensitizer. Clinicopathologic factors were collected as part of patient enrollment, as were treatment schedules and follow-up clinical information including toxicity, overall survival and disease-free survival. The UCLA Stage I/II pancreatic cancer TMA consisted of 140 cases of AJCC stage I or II pancreatic adenocarcinoma from the UCLA Department of Pathology and Laboratory Medicine archives, representing patients who underwent complete gross resection of tumor at UCLA Medical Center between 1987 and 2005. All work was performed with appropriate institutional review board approvals.
Statistical Analysis. Specific histone cut-offs were previously shown to predict survival in subsets of patients with multiple types of carcinoma, including prostate, lung and kidney (Seligson et al., Am J Pathol 174:1619-1628 (2009); Seligson et al., Nature 435:1262-6 (2005)). In order to standardize and apply these same cut-offs in both pancreatic cancer TMAs, each tumor was assigned a percent rank value (quantile) based on median percent of cells staining relative to its TMA dataset using the SAS system procedure RANK with TIES=LOW option, which assigns the smallest of the corresponding ranks for the ties data values. Each tumor was then assigned into a low or high level staining group based on its percent rank, including H3K4me2 (<60 vs. ≧60 percent rank), H3K9me2 (<30 vs. ≧30 percent rank for the RTOG TMA or <25 vs. ≧25 percent rank for the UCLA Stage I/II TMA) and H3K18ac (<35 vs. ≧35 percent rank). Survival estimates were generated and visualized using the Kaplan-Meier method and survival curves were compared using the log-rank test. Multivariate Cox proportional hazards models were used to test statistical independence and significance of multiple predictors. Overall survival time was measured from the date of randomization (RTOG 9704 TMA) or date of surgery (UCLA Stage I/II TMA) to the date of death due to any cause or last follow-up. Disease-free survival time was only determined for RTOG 9704 and was measured from the date of randomization to the date of first disease-free failure event defined as local or regional disease relapse, distant disease, second primary or death due to any cause. […]

[2] = test system: pancreatic adenocarcinoma; conditions: setting of fluorouracil-based chemoradiation; resected pancreatic cancer; cited from earlier work

| SMILES | overall or disease-free survival, gemcitabine or 5-FU ([1]; data not shown) | overall survival, 5-FU versus gemcitabine ([1]; low H3K4me2 subgroup, data not shown) | disease-free survival, 5-FU versus gemcitabine ([1]; low H3K4me2 subgroup, log rank test p=0.014) | disease-free survival, 5-FU versus gemcitabine ([1]; low H3K18ac subgroup, log rank test p=0.015) | survival benefit of adjuvant gemcitabine over adjuvant 5-FU [2] |
| --- | --- | --- | --- | --- | --- |
| O=c1[nH]cc(F)c(=O)[nH]1 [5-FU, 5-fluorouracil] | no significant differences | non-significant trend towards worse overall survival | worse disease-free survival | worse disease-free survival |  |
| Nc1ccn([C@@H]2O[C@H](CO)[C@@H](O)C2(F)F)c(=O)n1 [gemcitabine] | no significant differences |  |  |  | non-statistically significant survival benefit |

From patent publication US20120094949A1, “HISTONE MODIFICATION PATTERNS FOR CLINICAL DIAGNOSIS AND PROGNOSIS OF CANCER” (The Regents of the University of California, priority 2009, published 2012)
